Source: PubChem BioAssay (NCI)
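Protocol summary: plate cells (96-well), add compound at 5 concentrations, incubate 48 h, interpolate endpoints linearly. GI50 marks 50% less growth. TGI: concentration producing complete growth inhibition.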

What was measured:
Experiment in all cases: inhibition of tumour cell growth, NCI panel, 48 h
EKVX NSCLC = test system: EKVX NSCLC
UACC-257 melanoma = test system: UACC-257 melanoma
OVCAR-3 ovarian = test system: OVCAR-3 ovarian
HCC-2998 colon = test system: HCC-2998 colon
SK-MEL-28 melanoma = test system: SK-MEL-28 melanoma
HL-60(TB) leukemia = test system: HL-60(TB) leukemia
MDA-MB-231 breast = test system: MDA-MB-231 breast
MCF7 breast = test system: MCF7 breast
MDA-MB-435 = test system: MDA-MB-435
DU-145 prostate = test system: DU-145 prostate

Row | SMILES | TGI (EKVX NSCLC) [µM] | TGI (UACC-257 melanoma) [µM] | TGI (OVCAR-3 ovarian) [µM] | TGI (HCC-2998 colon) [µM] | TGI (SK-MEL-28 melanoma) [µM] | TGI (HL-60(TB) leukemia) [µM] | GI50 (MDA-MB-231 breast) [µM] | TGI (MDA-MB-231 breast) [µM] | GI50 (MCF7 breast) [µM] | TGI (MCF7 breast) [µM] | GI50 (EKVX NSCLC) [µM] | GI50 (UACC-257 melanoma) [µM] | GI50 (OVCAR-3 ovarian) [nM] | GI50 (MDA-MB-435) [µM] | TGI (MDA-MB-435) [µM] | GI50 (HCC-2998 colon) [µM] | GI50 (SK-MEL-28 melanoma) [µM] | GI50 (HL-60(TB) leukemia) [nM] | GI50 (DU-145 prostate) [µM] | TGI (DU-145 prostate) [µM]
1 | Cc1nc(-n2nc(-c3ccccc3)cc2-c2ccccc2)sc1C(=O)/C=C/c1ccccc1 | > 100 | > 100 | > 100 | > 100 | > 100 | > 100 |  |  |  |  |  |  |  |  |  |  |  |  |  | 
2 | O=c1cccccc1[O-].O=c1cccccc1[O-].O=c1cccccc1[O-].[Sm+3] | > 100 | > 100 | 47 | > 100 |  | > 100 |  |  |  |  |  |  |  |  |  |  |  |  |  | 
3 | Nc1ccc(C(=O)/C=C/c2ccccc2O)cc1 | > 100 | > 100 | > 100 | > 100 | > 100 | > 100 |  |  |  |  |  |  |  |  |  |  |  |  |  | 
4 | O=C1CNN=C(Cn2nc(-c3ccccc3)c3ccccc3c2=O)N1 |  | > 100 | > 100 | > 100 | > 100 | > 100 |  |  |  |  |  |  |  |  |  |  |  |  |  | 
5 | CC1CC(C)C(C(O)CC2CC(=O)N(c3ccccc3)C(=O)C2)C(O)C1 (configuration not stated) | > 100 | > 100 | > 100 | > 100 | > 100 | > 100 |  |  |  |  |  |  |  |  |  |  |  |  |  | 
6 | COc1cc(/C=C2\C(=O)N(C)c3ccccc32)cc(OC)c1OC | > 100 | 55 | 76.9 | 44.4 | 44.4 | > 100 | 14.2 | 68.4 | 20.3 | > 100 | 24.3 | 21.4 | 21300 | 5.02 | 45.4 | 19 | 16 | 7260 |  | 
7 | c1cncc(C2ONC3=NCCN32)c1 (configuration not stated) | > 100 | > 100 | 27.8 | 94.5 | > 100 |  | 32.3 | > 100 | 17.5 | > 100 | 23.2 | > 100 | 2860 | 50.8 | > 100 | 27.1 | > 100 |  | 15.8 | > 100
8 | O=C(c1ccccc1)C(Br)C(Br)c1ccccc1 (configuration not stated) | 32.7 | 8.04 | 3.65 | 26.3 | 13 |  | 14 | 29 | 1.79 | 7.85 | 14.6 | 3.2 | 1990 | 2.91 | 11.2 | 13.3 | 3.59 |  | 3.08 | 9.63
9 | Clc1ccc2c(NCCCN3CCN(c4nc(N5CCOCC5)nc5ccccc45)CC3)ccnc2c1 |  | 3.42 | 4.77 | 3.28 | 3.37 | 3.95 |  |  |  |  |  | 1.77 | 2150 | 1.81 | 3.36 | 1.77 | 1.88 | 1350 |  | 
10 | O=C1CCS/C(=N/S(=O)(=O)c2ccc(N3N=C4c5ccccc5CC4C3c3cccs3)cc2)N1Cc1ccccc1 (configuration not stated) | 65.8 | 50.7 | 60.8 | 33.2 | > 100 |  | 21.5 | 53.7 | > 100 | > 100 | 25.7 | 24.2 | 25900 | 21.1 | 44.6 | 17.9 | 42.1 |  | 21 | 52.6
11 | c1ccc2c3c([nH]c2c1)C1C2CCCCN2C(c2ccncc2)N1CC3 (configuration not stated) | > 100 | > 100 | > 100 |  | > 100 | 52.5 |  |  |  |  |  |  |  |  |  |  |  |  |  | 
12 | O=C(CC1=Nc2nnc(-c3nnc4n3C(=O)C(CC(=O)C3CC3)=N4)n2C1=O)C1CC1 |  | > 100 | > 100 | > 100 | > 100 | > 100 |  |  |  |  |  |  |  |  |  |  |  |  |  | 
13 | NC(=O)c1ncn(C2OC(CO)C(O)C2O)c1N (configuration not stated) | > 100 | > 100 | > 100 | > 100 | > 100 |  | > 100 | > 100 | > 100 | > 100 | > 100 | > 100 | > 100000 | > 100 | > 100 | > 100 | > 100 |  | 72.2 | > 100
14 | COC(=O)C1CCC(=O)N1/C(C)=N/NC(=O)Nc1ccc(Cl)c(Cl)c1 (configuration not stated) | > 100 | > 100 | > 100 | > 100 | > 100 | > 100 |  |  |  |  |  |  |  |  |  |  |  |  |  | 
15 | CCCCCCCCCCCCCCC(C)CCC(=O)O (configuration not stated) | > 100 | > 100 | > 100 |  | > 100 |  |  |  |  |  |  |  |  |  |  |  |  |  |  | 
16 | C=CCN=C(N/N=C/c1ccc([N+](=O)[O-])o1)NS(=O)(=O)c1cc(C(=O)Nc2ccccc2)c(Cl)cc1SCC(N)=O | > 100 | 49 | 39.8 | 40.6 | > 100 |  | 14 | 50.8 | 25.2 | 77.6 | 22.9 | 19.5 | 14700 | 17.9 | 36.7 | 20.7 | 37.6 |  | 22.4 | 71.9
17 | N/C(=N\C(N)=N\c1nc2ccccc2s1)c1cnccn1 | > 100 | 5.26 | 7.86 |  | 6.06 | 51.5 | 3.91 | > 100 | 3.16 | > 100 | 4.08 | 2.13 | 2790 |  |  |  | 2.3 | 2680 | 4.34 | > 100
18 | N#CC(NC(=O)CCl)=C(Cl)Cl | 3.81 | 3.09 | 2.46 | 3.41 | 3.03 |  | 1.73 | 3.24 | 1.22 | 9.07 | 1.85 | 1.55 | 1130 | 1.94 | 4.03 | 1.89 | 1.56 |  | 1.69 | 4.02
